Source: the NIST ThermoML archive (doi:10.1016/j.fluid.2018.01.025)

Experiments:
[1] = xn = mol fraction of the nth substance listed; details: 101 kPa, Liquid; for speed of sound: Frequency=2 MHz, Linear variable-path acoustic interferometer; for mass density: Vibrating tube method
[2] = 101.33 kPa, Liquid; for speed of sound: Frequency=2 MHz, Linear variable-path acoustic interferometer; for mass density: Vibrating tube method

CN(C)c1ccccc1 [N,N-dimethylaniline] + OCc1ccccc1
[1]
Details	mass density, 303.15 K [kg/m3]	mass density, 308.15 K [kg/m3]	mass density, 313.15 K [kg/m3]	mass density, 318.15 K [kg/m3]	mass density, 323.15 K [kg/m3]	speed of sound, 303.15 K [m/s]	speed of sound, 313.15 K [m/s]
x2 = 0.12	957.18	952.61	948.78	944.35	940.48	1475.2	1438
x2 = 0.2348	966.14	961.64	957.75	953.35	949.47	1480.2	1443.8
x2 = 0.3447	974.99	970.58	966.64	962.3	958.43	1484.8	1449.3
x2 = 0.4501	983.81	979.48	975.5	971.22	967.35	1489.2	1454.8
x2 = 0.5511	992.59	988.35	984.36	980.15	976.28	1493.5	1460.3
x2 = 0.6481	1001.4	997.24	993.26	989.1	985.25	1497.6	1465.7
x2 = 0.7412	1010.24	1006.19	1002.16	998.09	994.24	1501.5	1471.1
x2 = 0.8308	1019.15	1015.2	1011.16	1007.16	1003.34	1505.1	1476.4
x2 = 0.917	1028.12	1024.28	1020.19	1016.31	1012.49	1508.5	1481.7

CNc1ccccc1 [N-methylaniline]
[2]
Details	mass density [kg/m3]	speed of sound [m/s]
303.15 K	981.72	1549
308.15 K	976.04	–
313.15 K	970.89	1511
318.15 K	965.81	–
323.15 K	961.13	–

CNc1ccccc1 [N-methylaniline] + OCc1ccccc1
[1]
Details	mass density, 303.15 K [kg/m3]	mass density, 308.15 K [kg/m3]	mass density, 313.15 K [kg/m3]	mass density, 318.15 K [kg/m3]	mass density, 323.15 K [kg/m3]	speed of sound, 303.15 K [m/s]	speed of sound, 313.15 K [m/s]
x2 = 0.1044	987.67	980.39	976.87	971.88	967.24	1545	1507.9
x2 = 0.2078	993.53	986.48	982.82	977.93	973.34	1540.9	1505.2
x2 = 0.3102	999.29	992.49	988.73	983.96	979.41	1537.1	1502.6
x2 = 0.4116	1004.92	998.45	994.6	989.97	985.5	1533.3	1500.1
x2 = 0.512	1010.45	1004.34	1000.43	995.91	991.54	1529.6	1497.7
x2 = 0.6115	1015.9	1010.22	1006.25	1001.87	997.59	1526.1	1495.3
x2 = 0.71	1021.26	1016.06	1012.02	1007.8	1003.64	1522.5	1493
x2 = 0.8076	1026.57	1021.85	1017.82	1013.73	1009.68	1518.8	1490.8
x2 = 0.9042	1031.88	1027.64	1023.58	1019.63	1015.72	1515.3	1488.7

Nc1ccccc1 [aniline]
[2]
Details	mass density [kg/m3]	speed of sound [m/s]
303.15 K	1012.78	1615
308.15 K	1008.64	–
313.15 K	1004.49	1578
318.15 K	1000.36	–
323.15 K	996.43	–

Nc1ccccc1 [aniline] + OCc1ccccc1
[1]
Details	mass density, 303.15 K [kg/m3]	mass density, 308.15 K [kg/m3]	mass density, 313.15 K [kg/m3]	mass density, 318.15 K [kg/m3]	mass density, 323.15 K [kg/m3]	speed of sound, 303.15 K [m/s]	speed of sound, 313.15 K [m/s]
x2 = 0.0895	1015.86	1011.46	1007.17	1003.04	999.07	1605.7	1570.1
x2 = 0.181	1018.68	1014.15	1009.79	1005.68	1001.68	1596.1	1561.9
x2 = 0.2748	1021.37	1016.76	1012.36	1008.28	1004.27	1586.4	1553.5
x2 = 0.3709	1023.88	1019.29	1014.9	1010.83	1006.82	1576.5	1544.9
x2 = 0.4693	1026.28	1021.76	1017.36	1013.33	1009.35	1566.6	1536
x2 = 0.5701	1028.61	1024.17	1019.82	1015.83	1011.87	1556.3	1526.9
x2 = 0.6735	1030.85	1026.55	1022.24	1018.31	1014.35	1545.9	1517.5
x2 = 0.7796	1033.02	1028.88	1024.64	1020.74	1016.84	1535.2	1507.8
x2 = 0.8884	1035.14	1031.18	1027.03	1023.15	1019.33	1523.9	1497.7

OCc1ccccc1 [benzenemethanol]
[2]
Details	mass density [kg/m3]	speed of sound [m/s]
303.15 K	1037.18	1512
308.15 K	1033.45	–
313.15 K	1029.36	1487
318.15 K	1025.57	–
323.15 K	1021.78	–
